According to article PMC11678782, “The Antioxidant and Anti-Inflammatory Activities of the Methanolic Extract, Fractions, and Isolated Compounds from Eriosema montanum Baker f. (Fabaceae)” (Molecules, 2024):
In brackets after ≈: the same amount, converted by molar mass.

Legend:
[1] = ABTS radical scavenging assay; details: 5 min, 734 nm
Method: (§1) Three in vitro antioxidant assays, namely, 2,2′-azinobis-(3-ethylbenzothiazoline-6-sulfonic acid (ABTS), 2,2′-diphenyl-1-picrylhydrazyl (DPPH), and ferric ion reducing antioxidant power (FRAP), were used to determine the antioxidant activity according to methods previously reported. Ascorbic acid (0 to 200 μg/mL) was used as positive control in these experiments, and Formula (1) below allowed us to evaluate the percentage of radical scavenging capacity. The inhibitory concentration (IC50) values were evaluated by plotting a nonlinear graph of percentage radical scavenging capacity versus logarithm of tested concentrations. Scavenging capacity (%) = [(A0 − A1)/A0] × 100(1) where A0 is absorbance of negative control, and A1 is absorbance of extract with ABTS^•+ radical cation.
Specifically, 2.45 mM of potassium persulfate and 7 mM of ABTS solution were dissolved in methanol and combined to create the ABTS^•+ radical cation, which was stored at 25 °C for a minimum of 16 h. At 734 nm, the absorbance of the generated ABTS^•+ was measured using a SpectraMax iD3 multi-mode microplate reader (Molecular Devices, San Jose, CA, USA) and calibrated to 0.70 ± 0.02. After carefully diluting 40 μL of EMME (1 mg/mL) with methanol and adding 160 μL of (ABTS^•+) radical cation, the 96-well microtiter plate was left to sit at 25 °C in the dark for five minutes. Using a SpectraMax iD3 multi-mode microplate reader, the absorbance values were measured at 734 nm against the blank (extract plus methanol without ABTS^•+). A nonlinear curve representing the percentage of ABTS^•+ scavenging capacity vs. a logarithm of tested concentrations was then plotted to determine the inhibitory concentration (IC50) values.
(§2) The IC50 values were calculated for each biological experiment using the nonlinear regression curve of the % inhibitory activity versus the logarithm (log10) of the various tested concentrations using GraphPad Prism 6.0 software (GraphPad Software, Inc., San Diego, CA, USA). The data are shown as mean ⁱ SEM (standard error of the mean) values, and all biological experiments were conducted in triplicate (n = 3). The statistical analysis was conducted using GraphPad Prism 6.0 software (GraphPad Software, Inc., San Diego, CA, USA). One-way analysis of variance (ANOVA) was used to compare the data across the tested samples and/or controls, and Student–Newman–Keuls or Dunnett’s tests were then performed. A p-value of less than 0.05 indicated a significant difference in the results.

[2] = Ferric reducing antioxidant power (FRAP) assay; details: relative to 200 µg/mL gallic acid, 700 nm
Method: as §1
The generally used and almost standard method for performing the FRAP test is that developed by Benzie and Strain [15]. Indeed, the antioxidant power is determined in a colorimetric reaction linked to redox in which an intense blue-colored ferroustripyridyltriazine (Fe^2+-TPTZ) complex is obtained via reduction at a low pH of ferrictripyridyltriazine (Fe^3+-TPTZ). The incubation of a quantity of 50 μL of EMME (1.56 to 200 μg/mL) or 200 μg/mL of gallic acid (Merck, Lethabong, South Africa) on a 96-well plate was carried out with 50 μL of 1% potassium ferricyanide (prepared in 0.2 M of sodium phosphate buffer, pH 6.6) for 30 min at 50 °C. Then, 50 μL of 10% trichloroacetic acid (TCA), 40 μL of distilled water, and 10 μL of 0.1% ferric chloride were added, respectively. The absorbance values were recorded on a blank (extract plus sodium phosphate buffer) at 700 nm on a SpectraMax iD3 multi-mode microplate reader (Molecular Devices, San Jose, CA, USA); the FRAP activity was indicated as inhibition percentage of 200 μg/mL of gallic acid.
as §2

IC50 ABTS [1] | IC50 FRAP [2] | IC50 ABTS ([1]; listed as genistin) | Compound
>100 µg/mL | >200 µg/mL |  | CCCCCCCCCCCCCCCC [Compound 1, n-hexadecane]
>100 µg/mL | >200 µg/mL |  | CCCCCCCCCCCCCCCCCCCCCCCO [Compound 3, tricosan-1-ol]
>100 µg/mL | >200 µg/mL |  | O=c1c2c(O)cc(O)cc2oc2oc3cc(O)ccc3c12 [Compound 4, lupinalbin A]
91.02 ± 1.33 µg/mL (≈ 211 µM) | >200 µg/mL | 99.89 µg/mL (≈ 231 µM) | O=c1c(-c2ccc(O)cc2)coc2cc(O[C@@H]3O[C@H](CO)[C@@H](O)[C@H](O)[C@H]3O)cc(O)c12 [Compound 5, genistin]
>100 µg/mL | >200 µg/mL |  | CO[C@H]1[C@H](O)[C@@H](O)[C@@H](O)[C@H](O)[C@@H]1O [Compound 6, D-pinitol]

Compound | IC50 ABTS [1] | IC50 FRAP [2] | IC50 ABTS ([1]; listed as genistin)
CC[C@H](/C=C/[C@@H](C)[C@H]1CC[C@H]2[C@@H]3CC=C4C[C@@H](O[C@@H]5O[C@H](CO)[C@@H](O)[C@H](O)[C@H]5O)CC[C@]4(C)[C@H]3CC[C@]12C)C(C)C [Compound 7, stigmasterol glucoside] | >100 µg/mL | >200 µg/mL | 
